# Source: US6337089B1, “Microcapsule containing core material and method for producing the same” (Seiwa Kasei Company, Limited, priority 1998, dated 2002)
# Assay: Analysis Method 8: ultraviolet ray transmittance on surgical tape
# Details: wave-length of 310 nm; applied amounts differ per sample
# Procedure: A measuring sample was applied on a surgical tape (TRANSPORE TAPE, manufactured by 3M Corp.), this was irradiated with a ultraviolet ray, and the amount of the transmitted light was measured by a SPF analyzer, (UV-1000S, manufactured by LABSPHERE Corp., US). The numerical value in the examples is an average of 40 values. The amount of the sample applied on a surgical tape is 2 μl/cm^2 and a certain amount when measuring SPF value and ultraviolet ray transmittance, respectively.
smiles,measurement,value
"CCCCC(CC)COC(=O)C=Cc1ccc(OC)cc1 (stereo not shown) [2-ethylhexyl p-methoxy-cinnamate, 2-ethylhexyl p-methoxycinnamate]",Ultraviolet ray transmittance,2.2
